Experimental data published in patent US11426084B2, “Method, apparatus and computer program for noninvasively determining cause of blood pressure change” (THE ASAN FOUNDATION, priority 2017, dated 2022).

Tested on: blood pressure, myocardial contractile force and vascular resistance
Test: Administration of a cardiovascular agonist/blocker; indexes on myocardial contractile force and vascular resistance and changes in S1a and S2a observed
Format: in vivo
Settings: for change in S1a and S2a when the drug is administered (in words): summary of Tables 2 to 4
Protocol: As cases of administering a cardiovascular agonist, Table 2 illustrates an experimental example in which various indexes on myocardial contractile force and vascular resistance and changes in S1a and S2a were observed when ephedrine of 10 mg as alpha and beta agonist was administered, Table 3 illustrates an experimental example in which various indexes on myocardial contractile force and vascular resistance and changes in S1a and S2a were observed when esmolol of 25 mg as beta-blocker was administered, and Table 4 illustrates an experimental example in which various indexes on myocardial contractile force and vascular resistance and changes in S1a and S2a were observed when phenylephrine of 100 mcg as the alpha agonist was administered. In order to determine the cause of the change in blood pressure, the above-described agents causing the change in blood pressure were administered and the response after the administration was examined.

CN[C@@H](C)[C@H](O)c1ccccc1 [ephedrine]
S12_R (after administration of ephedrine 10 mg, before administration 1.79 ± 0.83, P 0.209): 2.06 ± 0.84
S′ (after administration of ephedrine 10 mg, before administration 9.7 ± 2.1, P 0.014): 11.3 ± 2.7
S2a (after administration of ephedrine 10 mg, before administration 17.7 ± 8.1, P 0.004): 22.6 ± 9.2 au
S1a (after administration of ephedrine 10 mg, before administration 27.6 ± 12.6, P 0.012): 43.7 ± 24.9 au
SBP (after administration of ephedrine 10 mg, before administration 109.6 ± 13.2, P <0.001): 139.3 ± 14.0 mmHg
RRI (after administration of ephedrine 10 mg, before administration 652 ± 70, P 0.029): 625 ± 90 ms
SVR (after administration of ephedrine 10 mg, before administration 719.4 ± 199.2, P 0.011): 892.6 ± 250.2 dyne · sec/cm^5
dp/dt (after administration of ephedrine 10 mg, before administration 725.2 ± 73.8, P 0.001): 1065.5 ± 217.6 mmHg/s
change in S1a and S2a when the drug is administered (in words): S1a and S2a increase together

COC(=O)CCc1ccc(OCC(O)CNC(C)C)cc1 (centres unmarked) [esmolol]
S12_R (after administration of esmolol 25 mg, before administration 2.6 ± 0.91, P 0.001): 1.4 ± 0.38
S′ (after administration of esmolol 25 mg, before administration 13.7 ± 4.4, P 0.011): 10.2 ± 2.1
S2a (after administration of esmolol 25 mg, before administration 19.6 ± 5.5, P 0.162): 21.1 ± 5.4 au
S1a (after administration of esmolol 25 mg, before administration 49.3 ± 20.3, P 0.001): 27.5 ± 9.3 au
SBP (after administration of esmolol 25 mg, before administration 136.1 ± 16.8, P <0.001): 124.4 ± 13.2 mmHg
RRI (after administration of esmolol 25 mg, before administration 598 ± 96, P <0.001): 700 ± 95 ms
SVR (after administration of esmolol 25 mg, before administration 776.4 ± 256.1, P 0.062): 750.8 ± 251.0 dyne · sec/cm^5
dp/dt (after administration of esmolol 25 mg, before administration 1051.5 ± 233.4, P <0.001): 804.3 ± 151.1 mmHg/s
change in S1a and S2a when the drug is administered (in words): only S1a is significantly decreased

CNC[C@H](O)c1cccc(O)c1 [phenylephrine]
S12_R (after administration of phenylephrine 100 mcg, before administration 2.86 ± 1.73, P 0.531): 4.18 ± 6.7
S2a (after administration of phenylephrine 100 mcg, before administration 14.29 ± 7.53, P 0.016): 18.89 ± 8.14 au
S1a (after administration of phenylephrine 100 mcg, before administration 33.6 ± 20.8, P 0.428): 31.4 ± 15.5 au
SBP (after administration of phenylephrine 100 mcg, before administration 93.7 ± 13.2, P 0.014): 111.5 ± 13.8 mmHg
SVR (after administration of phenylephrine 100 mcg, before administration 452.7 ± 110.0, P 0.007): 524.0 ± 132.2 dyne · sec/cm^5
RRI (after administration of phenylephrine 100 mcg, before administration 575 ± 141, P 0.384): 528 ± 197 ms
dp/dt (after administration of phenylephrine 100 mcg, before administration 585.1 ± 106.1, P <0.001): 744.8 ± 95.3 mmHg/s
change in S1a and S2a when the drug is administered (in words): any significant change does not occur in S1a unlike S2a
